These results are taken from ChEMBL document CHEMBL5291721, “A preclinical secondary pharmacology resource illuminates target-adverse drug reaction associations of marketed drugs” (Nat Commun, 2023).

Broadly, the AC50 is the concentration at which the activity in the assay is half-maximal.

Some targets named below: D(1A) dopamine receptor (Homo sapiens, UniProt P21728); D(3) dopamine receptor (Homo sapiens, UniProt P35462); Histamine H3 receptor (Homo sapiens, UniProt Q9Y5N1); Mu-type opioid receptor (Homo sapiens, UniProt P35372).
In a further assay the target is Bile salt export pump (Homo sapiens, UniProt O95342). The class given is functional.
Sequence of Bile salt export pump (O95342 whole entry): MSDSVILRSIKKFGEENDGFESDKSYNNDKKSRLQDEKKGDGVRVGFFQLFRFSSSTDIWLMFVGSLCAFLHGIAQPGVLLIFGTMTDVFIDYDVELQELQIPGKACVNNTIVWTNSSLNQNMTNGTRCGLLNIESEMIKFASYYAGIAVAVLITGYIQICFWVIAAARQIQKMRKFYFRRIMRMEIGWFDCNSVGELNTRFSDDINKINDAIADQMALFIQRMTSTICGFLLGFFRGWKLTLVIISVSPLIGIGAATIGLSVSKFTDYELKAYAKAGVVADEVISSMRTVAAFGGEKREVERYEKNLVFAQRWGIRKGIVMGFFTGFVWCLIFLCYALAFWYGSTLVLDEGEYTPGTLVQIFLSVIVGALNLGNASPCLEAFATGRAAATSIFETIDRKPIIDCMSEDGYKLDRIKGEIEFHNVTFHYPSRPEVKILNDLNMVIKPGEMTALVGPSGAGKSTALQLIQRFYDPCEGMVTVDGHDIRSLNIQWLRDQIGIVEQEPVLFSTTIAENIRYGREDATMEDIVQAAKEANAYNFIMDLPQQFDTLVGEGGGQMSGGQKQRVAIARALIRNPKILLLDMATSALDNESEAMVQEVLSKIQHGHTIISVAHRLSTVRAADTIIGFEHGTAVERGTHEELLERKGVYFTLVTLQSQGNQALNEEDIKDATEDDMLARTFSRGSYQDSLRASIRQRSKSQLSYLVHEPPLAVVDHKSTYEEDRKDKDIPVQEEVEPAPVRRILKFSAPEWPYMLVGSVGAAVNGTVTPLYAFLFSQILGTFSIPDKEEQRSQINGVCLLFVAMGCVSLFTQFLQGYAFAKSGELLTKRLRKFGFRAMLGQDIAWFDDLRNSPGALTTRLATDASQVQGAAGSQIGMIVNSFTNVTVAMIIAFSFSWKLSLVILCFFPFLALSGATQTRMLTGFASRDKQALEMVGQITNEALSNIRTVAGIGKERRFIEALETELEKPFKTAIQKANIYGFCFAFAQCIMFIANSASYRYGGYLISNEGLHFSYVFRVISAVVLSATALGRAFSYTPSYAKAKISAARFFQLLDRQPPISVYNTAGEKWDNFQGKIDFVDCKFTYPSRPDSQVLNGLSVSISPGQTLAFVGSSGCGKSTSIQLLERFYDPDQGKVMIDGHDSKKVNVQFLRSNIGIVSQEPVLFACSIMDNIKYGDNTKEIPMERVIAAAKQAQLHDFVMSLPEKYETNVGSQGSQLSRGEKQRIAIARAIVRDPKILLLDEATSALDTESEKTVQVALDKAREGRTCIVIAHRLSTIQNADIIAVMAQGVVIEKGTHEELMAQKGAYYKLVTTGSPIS
A further assay has as its target Acetylcholinesterase (Homo sapiens, UniProt P22303). The class given is functional.
For assay [1], the target named is T1, Muscarinic acetylcholine receptor M2 (Homo sapiens, UniProt P08172).
T1 sequence (P08172 whole entry): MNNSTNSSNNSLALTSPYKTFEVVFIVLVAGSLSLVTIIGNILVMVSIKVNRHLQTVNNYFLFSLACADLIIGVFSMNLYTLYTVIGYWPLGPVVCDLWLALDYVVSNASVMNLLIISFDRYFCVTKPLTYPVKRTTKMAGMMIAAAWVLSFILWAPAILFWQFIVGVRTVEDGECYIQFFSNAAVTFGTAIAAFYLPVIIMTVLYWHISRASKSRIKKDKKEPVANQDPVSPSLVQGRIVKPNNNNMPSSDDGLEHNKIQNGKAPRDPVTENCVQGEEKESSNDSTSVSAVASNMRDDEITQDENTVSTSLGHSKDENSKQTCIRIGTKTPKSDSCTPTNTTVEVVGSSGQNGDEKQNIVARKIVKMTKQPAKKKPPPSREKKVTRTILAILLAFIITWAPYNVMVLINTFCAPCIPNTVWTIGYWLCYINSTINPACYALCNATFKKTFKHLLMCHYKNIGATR

Assay [2] concerns the target T2, 5-hydroxytryptamine receptor 1A (Homo sapiens, UniProt P08908).
T2 sequence (P08908 whole entry): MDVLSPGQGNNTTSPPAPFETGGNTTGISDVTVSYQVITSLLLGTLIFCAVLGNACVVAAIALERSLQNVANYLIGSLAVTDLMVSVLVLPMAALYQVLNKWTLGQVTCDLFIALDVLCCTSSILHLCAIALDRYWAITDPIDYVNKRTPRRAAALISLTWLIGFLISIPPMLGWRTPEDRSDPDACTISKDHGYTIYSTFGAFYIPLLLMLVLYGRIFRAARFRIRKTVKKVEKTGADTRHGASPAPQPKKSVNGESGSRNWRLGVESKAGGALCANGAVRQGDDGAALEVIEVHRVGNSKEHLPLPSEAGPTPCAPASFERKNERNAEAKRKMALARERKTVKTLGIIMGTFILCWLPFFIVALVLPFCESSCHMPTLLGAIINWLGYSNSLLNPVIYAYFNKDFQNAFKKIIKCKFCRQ

The target of assay [3] is 5-hydroxytryptamine receptor 2B (Homo sapiens, UniProt P41595). The class given is functional, cell-based.
Assay [4] addresses Voltage-gated inwardly rectifying potassium channel KCNH2 (Homo sapiens, UniProt Q12809). The class given is functional. Particulars: read-out: AC50.
The target in assay [5] is T3, Amine oxidase [flavin-containing] A (Homo sapiens, UniProt P21397).
T3 sequence (P21397 whole entry): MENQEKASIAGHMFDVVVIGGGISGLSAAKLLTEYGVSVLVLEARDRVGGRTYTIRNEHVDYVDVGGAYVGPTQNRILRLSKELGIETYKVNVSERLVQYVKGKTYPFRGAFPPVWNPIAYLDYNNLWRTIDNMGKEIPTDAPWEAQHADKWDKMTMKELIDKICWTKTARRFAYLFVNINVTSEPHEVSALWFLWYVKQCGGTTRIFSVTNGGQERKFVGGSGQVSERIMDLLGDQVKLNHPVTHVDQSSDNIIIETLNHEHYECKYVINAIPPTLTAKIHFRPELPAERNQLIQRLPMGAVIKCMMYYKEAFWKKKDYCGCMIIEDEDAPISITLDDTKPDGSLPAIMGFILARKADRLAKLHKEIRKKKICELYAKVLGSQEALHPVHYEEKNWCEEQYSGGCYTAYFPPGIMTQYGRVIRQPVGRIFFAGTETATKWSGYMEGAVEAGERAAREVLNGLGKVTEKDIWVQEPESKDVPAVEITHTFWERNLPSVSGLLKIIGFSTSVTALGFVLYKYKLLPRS
The class given is functional.

The target of assay [6] is cGMP-inhibited 3',5'-cyclic phosphodiesterase 3A (Homo sapiens, UniProt Q14432). The class given is functional.
Assay [7] addresses 3',5'-cyclic-AMP phosphodiesterase 4A (Homo sapiens, UniProt P27815). The class given is functional.
Assay [8] concerns the target T4, Prostaglandin G/H synthase 1 (Homo sapiens, UniProt P23219). The class given is functional.
Assay [9] deals with T4, Prostaglandin G/H synthase 1. The class given is functional. This is another data set of the same source.
The target of assay [10] is Sodium-dependent noradrenaline transporter (Homo sapiens, UniProt P23975).
Assay [11] concerns the target Sodium-dependent dopamine transporter (Homo sapiens, UniProt Q01959).
Assay [12] deals with T5, Thromboxane A2 receptor (Homo sapiens, UniProt P21731).
T5 sequence (P21731 whole entry): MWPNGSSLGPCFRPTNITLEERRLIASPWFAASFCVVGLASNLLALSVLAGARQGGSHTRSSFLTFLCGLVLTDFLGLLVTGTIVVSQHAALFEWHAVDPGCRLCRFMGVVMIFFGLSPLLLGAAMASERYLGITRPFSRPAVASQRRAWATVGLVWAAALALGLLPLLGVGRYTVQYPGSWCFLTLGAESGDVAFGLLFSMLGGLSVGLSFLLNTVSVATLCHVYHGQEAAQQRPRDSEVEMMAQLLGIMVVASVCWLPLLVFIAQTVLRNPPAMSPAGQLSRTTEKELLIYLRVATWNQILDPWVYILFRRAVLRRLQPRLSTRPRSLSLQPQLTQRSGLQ
The class given is functional, cell-based.

The target in assay [13] is T5, Thromboxane A2 receptor. The class given is functional, cell-based. This is another data set of the same source.
Note: assay procedure not described here.

Sequence of Voltage-gated inwardly rectifying potassium channel KCNH2 (Q12809 whole entry): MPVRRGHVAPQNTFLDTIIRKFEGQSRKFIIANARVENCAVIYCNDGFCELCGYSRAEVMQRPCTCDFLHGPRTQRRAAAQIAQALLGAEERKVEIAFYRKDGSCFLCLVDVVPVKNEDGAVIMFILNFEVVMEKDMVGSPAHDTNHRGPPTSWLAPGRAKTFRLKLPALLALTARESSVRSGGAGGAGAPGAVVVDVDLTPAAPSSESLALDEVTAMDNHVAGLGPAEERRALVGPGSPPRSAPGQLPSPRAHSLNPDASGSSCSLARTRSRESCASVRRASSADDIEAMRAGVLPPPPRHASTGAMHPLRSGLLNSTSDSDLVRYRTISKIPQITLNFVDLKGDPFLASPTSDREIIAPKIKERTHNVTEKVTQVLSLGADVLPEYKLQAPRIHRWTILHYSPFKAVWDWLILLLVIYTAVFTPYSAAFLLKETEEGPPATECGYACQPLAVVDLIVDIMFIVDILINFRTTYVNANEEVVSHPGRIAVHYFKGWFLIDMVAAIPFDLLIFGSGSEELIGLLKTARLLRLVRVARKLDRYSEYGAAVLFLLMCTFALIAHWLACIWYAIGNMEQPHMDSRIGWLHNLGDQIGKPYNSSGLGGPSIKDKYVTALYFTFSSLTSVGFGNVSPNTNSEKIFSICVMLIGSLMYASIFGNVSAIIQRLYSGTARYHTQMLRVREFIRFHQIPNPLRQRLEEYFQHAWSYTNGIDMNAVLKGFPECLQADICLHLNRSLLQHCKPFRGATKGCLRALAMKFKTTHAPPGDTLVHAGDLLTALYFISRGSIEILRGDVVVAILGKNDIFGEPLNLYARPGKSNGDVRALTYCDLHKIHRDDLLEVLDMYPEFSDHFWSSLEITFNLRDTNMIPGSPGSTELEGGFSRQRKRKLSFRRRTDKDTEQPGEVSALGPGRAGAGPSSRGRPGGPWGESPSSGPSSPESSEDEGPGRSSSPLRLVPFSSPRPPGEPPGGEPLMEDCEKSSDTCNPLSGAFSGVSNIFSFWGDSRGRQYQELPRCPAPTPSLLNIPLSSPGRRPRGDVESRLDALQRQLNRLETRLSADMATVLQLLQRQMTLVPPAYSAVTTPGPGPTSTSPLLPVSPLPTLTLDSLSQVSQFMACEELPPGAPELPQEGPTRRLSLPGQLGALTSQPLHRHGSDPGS
Sequence of 3',5'-cyclic-AMP phosphodiesterase 4A (P27815 whole entry): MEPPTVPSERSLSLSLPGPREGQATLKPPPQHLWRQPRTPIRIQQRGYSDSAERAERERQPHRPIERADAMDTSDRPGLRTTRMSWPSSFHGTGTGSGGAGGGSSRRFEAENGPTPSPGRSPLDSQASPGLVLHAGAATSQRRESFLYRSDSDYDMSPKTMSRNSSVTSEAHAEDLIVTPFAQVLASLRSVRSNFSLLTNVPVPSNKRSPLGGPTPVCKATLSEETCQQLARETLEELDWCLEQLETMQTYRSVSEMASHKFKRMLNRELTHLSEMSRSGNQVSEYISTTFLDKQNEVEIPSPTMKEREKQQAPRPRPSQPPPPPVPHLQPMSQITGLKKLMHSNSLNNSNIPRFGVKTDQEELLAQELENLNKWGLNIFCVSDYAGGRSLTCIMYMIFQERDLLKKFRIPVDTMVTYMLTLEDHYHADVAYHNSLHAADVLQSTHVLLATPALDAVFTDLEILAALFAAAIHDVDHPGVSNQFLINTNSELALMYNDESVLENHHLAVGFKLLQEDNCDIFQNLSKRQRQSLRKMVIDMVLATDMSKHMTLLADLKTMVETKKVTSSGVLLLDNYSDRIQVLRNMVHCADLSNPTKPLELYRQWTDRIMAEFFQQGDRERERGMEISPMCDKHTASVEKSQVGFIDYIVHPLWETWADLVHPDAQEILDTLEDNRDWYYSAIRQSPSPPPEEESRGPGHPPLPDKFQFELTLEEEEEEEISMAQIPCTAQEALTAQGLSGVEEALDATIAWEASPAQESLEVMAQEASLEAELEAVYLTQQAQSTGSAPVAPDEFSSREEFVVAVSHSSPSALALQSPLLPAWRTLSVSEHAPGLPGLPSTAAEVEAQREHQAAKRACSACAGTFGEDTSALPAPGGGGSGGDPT
Sequence of Acetylcholinesterase (P22303 whole entry): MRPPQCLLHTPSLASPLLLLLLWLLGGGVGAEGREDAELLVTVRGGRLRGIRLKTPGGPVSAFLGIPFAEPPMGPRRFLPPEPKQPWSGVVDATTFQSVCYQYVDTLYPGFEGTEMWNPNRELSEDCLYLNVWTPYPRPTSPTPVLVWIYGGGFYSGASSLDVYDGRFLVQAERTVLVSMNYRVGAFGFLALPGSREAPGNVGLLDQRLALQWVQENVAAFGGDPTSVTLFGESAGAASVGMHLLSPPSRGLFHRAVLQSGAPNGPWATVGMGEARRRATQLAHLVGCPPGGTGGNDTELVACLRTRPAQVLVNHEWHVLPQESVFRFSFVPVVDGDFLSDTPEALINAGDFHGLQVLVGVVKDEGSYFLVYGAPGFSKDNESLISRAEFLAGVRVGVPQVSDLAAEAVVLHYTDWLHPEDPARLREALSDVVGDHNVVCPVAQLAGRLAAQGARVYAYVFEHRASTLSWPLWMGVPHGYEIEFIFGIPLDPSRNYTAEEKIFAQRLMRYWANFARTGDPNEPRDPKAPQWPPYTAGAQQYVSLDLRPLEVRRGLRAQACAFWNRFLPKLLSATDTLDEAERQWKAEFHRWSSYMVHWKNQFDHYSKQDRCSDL
Sequence of D(3) dopamine receptor (P35462 whole entry): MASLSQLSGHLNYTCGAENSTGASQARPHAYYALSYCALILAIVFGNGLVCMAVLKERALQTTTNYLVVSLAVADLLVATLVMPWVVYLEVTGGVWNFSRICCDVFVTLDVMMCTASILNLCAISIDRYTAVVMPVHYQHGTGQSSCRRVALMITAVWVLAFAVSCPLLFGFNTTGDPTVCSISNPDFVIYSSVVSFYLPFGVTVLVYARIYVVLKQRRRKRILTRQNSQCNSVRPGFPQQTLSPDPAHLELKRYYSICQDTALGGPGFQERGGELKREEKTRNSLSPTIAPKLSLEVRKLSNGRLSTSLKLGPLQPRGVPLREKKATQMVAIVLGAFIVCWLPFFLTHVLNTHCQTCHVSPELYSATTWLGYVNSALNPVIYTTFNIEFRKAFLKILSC
Sequence of D(1A) dopamine receptor (P21728 whole entry): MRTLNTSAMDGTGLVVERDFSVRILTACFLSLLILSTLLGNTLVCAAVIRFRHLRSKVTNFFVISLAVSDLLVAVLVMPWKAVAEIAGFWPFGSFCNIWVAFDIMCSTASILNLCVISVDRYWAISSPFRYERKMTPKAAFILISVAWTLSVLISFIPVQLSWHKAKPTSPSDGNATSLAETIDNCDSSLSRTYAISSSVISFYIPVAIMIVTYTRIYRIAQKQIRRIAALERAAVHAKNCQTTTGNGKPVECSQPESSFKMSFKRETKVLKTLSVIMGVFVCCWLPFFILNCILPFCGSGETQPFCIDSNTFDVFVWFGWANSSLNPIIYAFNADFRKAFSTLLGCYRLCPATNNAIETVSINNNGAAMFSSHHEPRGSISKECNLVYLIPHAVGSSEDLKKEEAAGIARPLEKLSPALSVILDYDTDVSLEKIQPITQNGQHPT

For the compound `CCOc1ccc2ccccc2c1C(=O)N[C@@H]1C(=O)N2[C@@H]1SC(C)(C)[C@@H]2C(=O)O` [NAFCILLIN], the AC50 at Bile salt export pump is 40 µM; at Acetylcholinesterase, greater than 30 µM; in assay [1], greater than 30 µM; at D(1A) dopamine receptor, greater than 30 µM; at D(3) dopamine receptor it was greater than 30 µM; on Histamine H3 receptor, greater than 30 µM. The AC50 (in assay [2]; in [3]; in assay [4]; in assay [5]; at Mu-type opioid receptor; in assay [6]) was greater than 30 µM in each case. Besides, the AC50 (in assay [7]; in [8]; in [9]; in assay [10]; in [11]; on Thromboxane A2 receptor [12]) was greater than 30 µM each time. At Thromboxane A2 receptor [13], this compound yielded an AC50 greater than 30 µM.

As to `CC(C)[N+](C)(CCOC(=O)C1c2ccccc2Oc2ccccc21)C(C)C` [PROPANTHELINE], the AC50 on Bile salt export pump was greater than 300 µM; on Acetylcholinesterase it was greater than 30 µM; in assay [1] it was 0.003 µM; at D(1A) dopamine receptor it was greater than 30 µM; on D(3) dopamine receptor it was greater than 30 µM; on Histamine H3 receptor, greater than 30 µM. Moreover, the AC50 in [2] is greater than 30 µM; in [3], greater than 30 µM; in assay [4], 2 µM; in assay [5], greater than 30 µM; at Mu-type opioid receptor, greater than 30 µM; in assay [6] it was greater than 30 µM. Further, the AC50 (in assay [7]; in assay [8]; in assay [9]; in assay [10]; in [11]; on Thromboxane A2 receptor [12]) was greater than 30 µM throughout. The same compound registered a concentration at half-maximal activity (AC50) on Thromboxane A2 receptor [13] greater than 30 µM.

Regarding `CNC(=O)c1cc(Oc2ccc(NC(=O)Nc3ccc(Cl)c(C(F)(F)F)c3)c(F)c2)ccn1` [REGORAFENIB], the AC50 on Bile salt export pump is 3 µM; at Acetylcholinesterase, greater than 30 µM; in assay [1] it was greater than 30 µM; on D(1A) dopamine receptor, 5.61 µM; at D(3) dopamine receptor, greater than 30 µM; at Histamine H3 receptor, greater than 30 µM. The AC50 in assay [2] was 1.42 µM; in assay [3], greater than 30 µM; in assay [4] it was greater than 10 µM; in [5] it was greater than 30 µM; at Mu-type opioid receptor, 4.43 µM; in assay [6] it was greater than 30 µM. Besides, the AC50 in assay [7] was greater than 30 µM; in [8], greater than 30 µM; in assay [9], 17.5 µM; in assay [10] it was 20 µM; in assay [11], 1.04 µM; at Thromboxane A2 receptor [12], greater than 30 µM. The compound further registered an AC50 on Thromboxane A2 receptor [13] of 6.35 µM.

As to `NC(=O)NS(=O)(=O)c1ccc(N)cc1` [SULFACARBAMIDE], the AC50 on Bile salt export pump was greater than 300 µM; on Acetylcholinesterase it was greater than 30 µM; in [1], greater than 30 µM; on D(1A) dopamine receptor it was greater than 30 µM; at D(3) dopamine receptor, greater than 30 µM; on Histamine H3 receptor it was greater than 30 µM. Moreover, the AC50 (in assay [2]; in assay [3]; in assay [4]; in assay [5]; on Mu-type opioid receptor; in assay [6]) was greater than 30 µM throughout. The AC50 (in [7]; in assay [8]; in assay [9]; in assay [10]; in [11]; at Thromboxane A2 receptor [12]) was greater than 30 µM each time. Besides, on Thromboxane A2 receptor [13], the AC50 is greater than 30 µM.

For `CC1(C)O[C@@H]2[C@@H](CO[C@@]3(COS(N)(=O)=O)OC(C)(C)O[C@@H]23)O1` [TOPIRAMATE], the AC50 is greater than 300 µM at Bile salt export pump; greater than 30 µM on Acetylcholinesterase; greater than 30 µM in assay [1]; greater than 30 µM on D(1A) dopamine receptor; greater than 30 µM at D(3) dopamine receptor; greater than 30 µM on Histamine H3 receptor. Also, the AC50 (in assay [2]; in [3]; in assay [4]; in assay [5]; on Mu-type opioid receptor; in assay [6]) was greater than 30 µM in each case. The AC50 (in assay [7]; in [8]; in [9]; in [10]; in assay [11]; on Thromboxane A2 receptor [12]) was greater than 30 µM in each case. The compound also had an AC50 at Thromboxane A2 receptor [13] greater than 30 µM.
